Results published in patent publication US10765114B2, “4-amino-6-(pyridyl and 2-substitutedphenyl)-picolinates and 6-amino-2-(pyridyl and 2-substitutedphenyl)-pyrimidine-4-carboxylates and their use as herbicides” (Dow AgroSciences LLC, priority 2013, dated 2020).
Where two headings read alike, the source gives them in different places.

What was measured:
[1] = test system: Key Grass and Sedge Weeds as well as Grass Crops; assay: Post-Emergent Test II (Table 6); type: in vivo; details: post-emergence, 336 h, 14 days after application; for pest or weed control at 70 g/ha: 70 g ai/ha; for pest or weed control at 140 g/ha: 140 g ai/ha
Procedure, shortened: (§1)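 Plants at first or second true-leaf stage, grown 7-21 days in greenhouse, were sprayed post-emergence at 187 L/ha with compounds in acetone/DMSO/water/crop oil/surfactant mixture at the high rate and ½× to 1/16× dilutions. Injury scored visually after 14 days, 0 (none) to 100% (complete kill), versus untreated plants.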

[2] = test system: Key Broadleaf Weed and Crop Species; assay: Post-Emergent Test II (Table 5); type: in vivo; details: post-emergence, 336 h; for pest or weed control at 70 g/ha: application rate 70 (kg ai/ha; footnote: g ai/ha); for pest or weed control at 140 g/ha: application rate 140 (kg ai/ha; footnote: g ai/ha)
Procedure, shortened: as §1

[3] = CYPSS, read-out: Visual Growth Reduction (%) 14 Days After Application CYPSS
[4] = DIGSA: crabgrass (Digitaria sanguinalis), read-out: Visual Growth Reduction (%) 14 Days After Application DIGSA
[5] = ECHSS, read-out: Visual Growth Reduction (%) 14 Days After Application ECHSS
[6] = ORYSS (crop), read-out: Visual Growth Reduction (%) 14 Days After Application ORYSS
[7] = SETFA: giant foxtail (Setaria faberi), read-out: Visual Growth Reduction (%) 14 Days After Application SETFA
[8] = SORVU: grain sorghum (Sorghum vulgare), read-out: Visual Growth Reduction (%) 14 Days After Application SORVU
[9] = TRZSS (crop), read-out: Visual Growth Reduction (%) 14 Days After Application TRZSS
[10] = ZEAMX: maize, corn (Zea mays), read-out: Visual Growth Reduction (%) 14 Days After Application ZEAMX
[11] = Abutilon theophrasti, ABUTH: velvetleaf (Abutilon theophrasti), read-out: Visual Growth Reduction (%) 14 Days After Application ABUTH
[12] = Amaranthus retroflexus, AMARE: redroot pigweed (Amaranthus retroflexus), read-out: Visual Growth Reduction (%) 14 Days After Application AMARE
[13] = Brassica napus, BRSSS: oilseed rape, canola (Brassica napus), read-out: Visual Growth Reduction (%) 14 Days After Application BRSSS
[14] = Chenopodium album, CHEAL: lambsquarters (Chenopodium album), read-out: Visual Growth Reduction (%) 14 Days After Application CHEAL
[15] = Euphorbia heterophylla, EPHHL: wild poinsettia (Euphorbia heterophylla), read-out: Visual Growth Reduction (%) 14 Days After Application EPHHL
[16] = Helianthus annuus, HELAN: sunflower (Helianthus annuus), read-out: Visual Growth Reduction (%) 14 Days After Application HELAN
[17] = Viola tricolor, VIOTR: wild pansy (Viola tricolor), read-out: Visual Growth Reduction (%) 14 Days After Application VIOTR

Structure (SMILES) | pest or weed control at 70 g/ha [1, 3] | pest or weed control at 140 g/ha [1, 3] | pest or weed control at 70 g/ha [1, 4] | pest or weed control at 140 g/ha [1, 4] | pest or weed control at 70 g/ha [1, 5] | pest or weed control at 140 g/ha [1, 5] | pest or weed control at 70 g/ha [1, 6] | pest or weed control at 140 g/ha [1, 6] | pest or weed control at 70 g/ha [1, 8] | pest or weed control at 140 g/ha [1, 8] | pest or weed control at 70 g/ha [1, 9] | pest or weed control at 140 g/ha [1, 9] | pest or weed control at 70 g/ha [1, 10] | pest or weed control at 140 g/ha [1, 10] | pest or weed control at 70 g/ha [2, 11] | pest or weed control at 140 g/ha [2, 11] | pest or weed control at 70 g/ha [2, 12] | pest or weed control at 140 g/ha [2, 12] | pest or weed control at 70 g/ha [2, 13] | pest or weed control at 140 g/ha [2, 13] | also measured
COC(=O)c1nc(-c2ccc(Cl)nc2Cl)cc(N)c1Cl [Compound 15, methyl 4-amino-2′,5,6′-trichloro-[2,3′-bipyridine]-6-carboxylate] | 0 to 29% | 0 to 29% | 0 to 29% | 0 to 29% | 0 to 29% | 0 to 29% | 0 to 29% | 0 to 29% | 0 to 29% | 0 to 29% | 0 to 29% | 0 to 29% | 0 to 29% | 0 to 29% | 75 to 84% | 85 to 94% | 95 to 100% | 95 to 100% | 60 to 74% | 75 to 84% | pest or weed control at 70 g/ha [1, 7]: 0 to 29%; pest or weed control at 140 g/ha [1, 7]: 0 to 29%; pest or weed control at 70 g/ha [2, 14]: 85 to 94%; pest or weed control at 140 g/ha [2, 14]: 85 to 94%; pest or weed control at 70 g/ha [2, 15]: 0 to 29%; pest or weed control at 140 g/ha [2, 15]: 0 to 29%; pest or weed control at 70 g/ha [2, 16]: 85 to 94%; pest or weed control at 140 g/ha [2, 16]: 95 to 100%; pest or weed control at 70 g/ha [2, 17]: 30 to 44%; pest or weed control at 140 g/ha [2, 17]: 30 to 44%; melting point: 231 °C
COC(=O)c1nc(-c2ccc(F)nc2)c(F)c(N)c1Cl [Compound 23] | 0 to 29% | 0 to 29% | 30 to 44% | 45 to 59% | 60 to 74% | 75 to 84% | 0 to 29% | 0 to 29% | 0 to 29% | 0 to 29% | 0 to 29% | 0 to 29% | 0 to 29% | 45 to 59% | 75 to 84% | 85 to 94% | 95 to 100% | 95 to 100% | 45 to 59% | 75 to 84% | pest or weed control at 70 g/ha [2, 14]: 95 to 100%; pest or weed control at 140 g/ha [2, 14]: 95 to 100%; pest or weed control at 70 g/ha [2, 15]: 75 to 84%; pest or weed control at 140 g/ha [2, 15]: 85 to 94%; pest or weed control at 70 g/ha [2, 16]: 85 to 94%; pest or weed control at 140 g/ha [2, 16]: 85 to 94%; pest or weed control at 70 g/ha [2, 17]: 30 to 44%; pest or weed control at 140 g/ha [2, 17]: 45 to 59%; melting point: 167 to 168 °C
COC(=O)c1nc(-c2ccc(C(F)(F)F)nc2F)c(F)c(N)c1Cl [Compound 24] | 45 to 59% | 95 to 100% | 0 to 29% | 75 to 84% | 45 to 59% | 60 to 74% | 0 to 29% | 0 to 29% | 30 to 44% | 45 to 59% | 0 to 29% | 0 to 29% | 0 to 29% | 95 to 100% | 75 to 84% | 75 to 84% | 75 to 84% | 95 to 100% | 60 to 74% | 75 to 84% | pest or weed control at 70 g/ha [1, 7]: 75 to 84%; pest or weed control at 140 g/ha [1, 7]: 75 to 84%; pest or weed control at 70 g/ha [2, 14]: 95 to 100%; pest or weed control at 140 g/ha [2, 14]: 95 to 100%; pest or weed control at 70 g/ha [2, 15]: 85 to 94%; pest or weed control at 140 g/ha [2, 15]: 85 to 94%; pest or weed control at 70 g/ha [2, 16]: 95 to 100%; pest or weed control at 140 g/ha [2, 16]: 95 to 100%; pest or weed control at 70 g/ha [2, 17]: 0 to 29%; pest or weed control at 140 g/ha [2, 17]: 0 to 29%; melting point: 128 °C
